In patent US11235020B2, “Methods and compositions for inhibiting glyoxalase 1 (GLO1)” (priority 2013, dated 2022):

Tests used:
GLO1 = biological target: T1, GLO1 (Mus musculus, UniProt Q9CPU0); test: HPLC measurement of MG concentration in whole brain after i.p. BrBzGCp2; assay type: in vivo; conditions: BrBzGCp2 30 mg/kg i.p., two hours
T1 construct: from tissue; host or cells: whole brain of WT C57BL/6J mice, in vivo dosing
Experimental: MG concentration was measured by HPLC as previously described with modifications (Dhar 2009). Tissue was homogenized in 50 mM sodium phosphate buffer (pH 6.6) and 0.8N perchloric acid. It was then incubated on ice for 10 minutes and centrifuged. The supernatant was filtered, and MG was derivatized with 10 mM o-phenylenediamine to form 2-methylquinoxaline (2-MQ). 5-methylquinoxaline (5-MQ, 15 μM) was spiked into each sample as an internal standard. 2-MQ was quantified using an HP 1100 HPLC system (Agilent) with a Nova-Pak C18 column (Waters Corporation). Column effluent was monitored at 315 nm. 2-MQ concentration was determined by comparison to 2-MQ standards of known mass. Quantification of 2-MQ was corrected for losses by comparison with 5-MQ. MG concentration was calculated as 2-MQ/tissue weight.
Treatment: BrBzGCp2 was dissolved in vehicle (8% DMSO and 18% Tween-80). Mice were treated i.p. with 10 ml/kg BrBzGCp2 or vehicle.
HPLC: 2 hours post-injection, mice were sacrificed, and brains were rapidly dissected and flash-frozen on dry ice. MG concentration was measured as described above.

mice [1] = test: Signs of toxicity after chronic administration; assay type: in vivo; conditions: chronic pBBG by osmotic minipump
Experimental: (A) Chronic (14 day) treatment by osmotic minipump with 5 or 10 mg/kg/day pBBG reduced immobility in the FST, establishing that chronic administration has antidepressant effects.

mice [2] = test: Observation of sedation or gross deficits in treated mice; conditions: mice treated with BrBzGCp2
[3] = system: depression-like behavior in mice; test: Chronic forced swim test (cFST), osmotic minipump; assay type: in vivo, mouse; conditions: 14 days
Experimental: To fully assess the therapeutic potential of GLO1 inhibitors, it is necessary to utilize behavioral models sensitive to chronic administration. These models are highly informative as the therapeutic onset of antidepressant action mimics clinical onset in humans. pBBG was administered by osmotic minipumps (Alzet) for 14 days at various doses (0, 5, 10, 15, 30 and 60 mg/kg/day) to establish a dose response curve. Osmotic minipumps are ideal for chronic treatment as they release a constant volume at a very slow rate minimizing the stress of multiple injections.

[4] = system: depression-like behavior in mice; test: Tail suspension test (TST); assay type: in vivo, mouse; conditions: pBBG pretreatment
Experimental: Mice were suspended by their tails using adhesive tape attached to a bar elevated approximately 46 cm above a table. The apparatus was illuminated to approximately 1,000 lux. Mice were tested individually, and time spent immobile was scored manually for six minutes. For MG studies, mice were treated with vehicle (0.9% saline) or crude MG (Sigma-Aldrich, 50 mg/kg) by i.p. injection ten minutes before the test. Behavior was scored for five minutes.

[5] = system: anxiety-like behavior and locomotion in mice; test: Open field (OF) test; assay type: in vivo, mouse; conditions: 14 days
purified human GLO1 = purified human GLO1 (Homo sapiens, UniProt Q04760); test: GLO1 enzymatic activity assay with purified protein; assay type: biochemical; conditions: 100 μM BrBzGCp2, 10 ng purified GLO1
Experimental: GLO1 activity was assayed by measuring the rate of formation of S-d-lactoylglutathione (Allen 1993).
Purified protein: 100 ng of purified protein was added to a hemithioacetal substrate, and enzymatic activity was measure as described above.
Enzymatic activity: Vehicle (DMSO) or 100 μM BrBzGCp2 was added to 10 ng of purified human GLO1. Enzymatic activity was measured as described above.

[6] = system: pilocarpine-induced seizures; test: Pilocarpine-induced seizures; assay type: in vivo, mouse
Experimental: Drug administration: All experiments with MG utilized crude MG obtained from Sigma-Aldrich. For pre-treatment, MG (50 or 200 mg/kg) or vehicle (0.9% saline) was administered by i.p. injection 10 minutes before the seizure-inducing agent. For treatment after seizure onset, MG (200 mg/kg) or vehicle (0.9% saline) was administered by i.p. injection ten minutes after seizure onset. For GLO1 inhibition, BrBzGCp2 (50 mg/kg) or vehicle (8% DMSO and 18% Tween-80) was administered by i.p. injection two hours before seizure induction.
Seizure induction: For picrotoxin-induced seizures, 5 mg/kg of picrotoxin in 0.9% saline was administered by i.p. injection. Seizures were scored for one hour after picrotoxin administration. For pilocarpine-induced seizures, mice were pre-treated with atropine (5 mg/kg in 0.9% saline) by i.p. injection in order to reduce the peripheral effects of pilocarpine. Thirty minutes after atropine administration, pilocarpine was administered by i.p. injection. B6 mice were treated with 250 mg/kg pilocarpine in 0.9% saline, and FVB mice (WT and Tg) were treated with 300 mg/kg pilocarpine in 0.9% saline. Seizures were scored for 90 minutes after pilocarpine administration.
Pilocarpine-induced seizures were scored as previously reported (Winawer 2011):
Stage 1: Immobility/Lying Low
Stage 2: Partial (limbic) seizures. Non-continuous twitching/tremor/shaking of tail/head/body/limbs, forelimb and/or tail extension, rigid posture, repetitive movements, head bobbing
Stage 3: Partial status epilepticus. Continuous tremor/clonic seizures of body and tail while retaining posture
Stage 4: Generalized seizures. Rearing/hyperexcitability/running/falling, tonic extension/clonic seizures with loss of posture
Stage 5: Generalized status epilepticus (continuous stage 4 seizures) resulting in death

[7] = system: anxiety-like behavior and locomotion in mice; test: Open field (OF) test; assay type: in vivo, mouse
Experimental: OF test: Mice were placed into the center of the OF, and activity was monitored for five to ten minutes. The apparatus was illuminated to approximately 40 lux. Data were collected and processed using the manufacturer's software (AccuScan Instruments).
OF test: Ten minutes post-injection, mice were placed into the center of the OF. The apparatus was illuminated to approximately 40 lux. Behavior was measured as described above.
OF test replication studies: Ten to twenty minutes post-injection, mice were tested in the OF for five to ten minutes. In some experiments, behavior was scored as described above. In other experiments, mice were tested in the OF, and behavior was automatically scored by the Noldus Ethovision System. For mice tested in the Noldus system, the apparatus was illuminated to approximately 1,000 lux.
Chronic MG administration: For five days, mice were injected twice daily with vehicle or MG (4 mg/kg). Twelve hours after the final injection, mice were tested in the OF as described above.
Pure MG: Pure MG was obtained from Dr. John Termini at the City of Hope, Duarte, Calif. It was administered at the indicated doses by i.p. injection. Mice were tested as described above.
OF test: Two hours post-injection, mice were tested in the OF test as described above. The center size was 10×10 cm. The apparatus was illuminated to approximately 40 lux.

[8] = system: depression-like behavior in mice; test: Forced swim test (FST), acute treatment; assay type: in vivo, mouse; conditions: pBBG 50 mg/kg i.p., two hours later; C57BL/6J, FVB/nJ and BALB/cJ mice
Experimental: The forced swim test (FST) is a highly reliable screen used to predict antidepressant efficacy after acute antidepressant treatments (Petit-Demouliere, Chenu & Bourin 2005). The FST relies on the phenomenon that relative to no treatment, mice receiving treatment with antidepressants will spend more time performing escape-oriented behaviors than immobile postures. […] Mice on three genetic backgrounds (C57BL/6J, FVB/nJ and BALB/cJ) were treated with 50 mg/kg pBBG (i.p.) and assessed depression-like behavior in the FST two hours later.

[9] = BrBzGCp2 30 mg/kg i.p., B6 mice, two hours post-injection

T1 sequence (Q9CPU0 2-184 limits assumed): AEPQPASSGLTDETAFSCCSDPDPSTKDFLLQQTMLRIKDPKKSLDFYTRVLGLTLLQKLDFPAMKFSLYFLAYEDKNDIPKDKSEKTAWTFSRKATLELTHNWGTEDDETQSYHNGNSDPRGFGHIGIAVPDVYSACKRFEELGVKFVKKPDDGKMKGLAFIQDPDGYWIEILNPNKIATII
Chain of purified human GLO1 (Q04760 whole entry): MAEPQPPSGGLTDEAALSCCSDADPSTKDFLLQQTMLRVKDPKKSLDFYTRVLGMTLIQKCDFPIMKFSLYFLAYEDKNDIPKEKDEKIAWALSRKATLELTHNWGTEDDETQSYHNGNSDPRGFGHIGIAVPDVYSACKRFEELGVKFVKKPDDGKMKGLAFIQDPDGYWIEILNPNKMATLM

N[C@@H](CCC(=O)N[C@@H](CSCc1ccc(Br)cc1)C(=O)NCC(=O)OC1CCCC1)C(=O)OC1CCCC1 [BrBzGCp2, S-bromobenzylglutathione cyclopentyl diester]
increase of MG concentration in the brain (GLO1): approximately 20%
signs of toxicity following chronic administration (mice [1]): none were observed
sedation or gross deficits (mice [2]): did not display sedation or gross deficits
immobility in the FST compared with fluoxetine ([3]; pBBG 5 mg/kg/day): reduced immobility in the FST to a similar extent as a selective serotonin reuptake inhibitor
immobility in the FST after chronic treatment ([3]; pBBG 5 or 10 mg/kg/day): reduce immobility in the FST
immobility in the FST after chronic treatment ([3]; pBBG 30, 60 mg/kg/day): increased immobility in the FST
immobility on the TST ([4]; C57BL/6J (B6) mice): decreased immobility on the TST
immobility on the TST ([4]; FVB/NJ mice): decreased immobility on the TST
total distance traveled in the OFT ([5]; pBBG 5, 10, or 15 mg/kg/day): had no effect on total distance traveled in the OFT
total distance traveled in the OFT ([5]; pBBG 15, 30 or 60 mg/kg/day): also had no effect on total distance traveled
GLO1 enzymatic activity (purified human GLO1): inhibit GLO1 enzymatic activity in vitro
seizure stage ([6]; BrBzGCp2 50 mg/kg i.p. two hours before pilocarpine): did not affect seizure stage
seizure duration (time in stage 3) ([6]; BrBzGCp2 50 mg/kg i.p. two hours before pilocarpine 250 mg/kg): reduced seizure durations
seizure latency ([6]; BrBzGCp2 50 mg/kg i.p. two hours before pilocarpine, data not shown): did not significantly affect seizure latency
center time in the OF test [7, 9]: increased center time in the OF test
distance traveled in the OF test [7, 9]: without changing distance traveled
anxiogenic effect of the Glo1 duplication in the OF ([7]; BrBzGCp2 50 mg/kg i.p., CD-1 mice with Glo1 duplication): reversed this effect
center time in the OF ([7]; BrBzGCp2 50 mg/kg i.p., CD-1 mice, two hours post-injection): increased center time in the OF
immobility in the FST [8]: reduced immobility in all strains
